Each structure is given as a SMILES string.

Common to all, as to assay: In vitro combination study with tazemetostat, cell proliferation (Cell Titer Glo)
(In general: In ATP-based viability assays light output follows the ATP content of the culture.)

One assay deals with A427. As to conditions: for combinatorial effect with tazemetostat (Loewe volume class): A427, 7 days tazemetostat pre-treatment, 6 days co-treatment with second agent.
A further assay relates to A549. The settings on record: 7 days tazemetostat pre-treatment, 6 days co-treatment with second agent.
The subject of a further assay is NCI-H1299. The settings on record: 7 days tazemetostat pre-treatment, 6 days co-treatment with second agent.
For a further assay, the system named is NCI-H1573. The settings on record: 7 days tazemetostat pre-treatment, 6 days co-treatment with second agent.
Another assay deals with NCI-H1703. The settings on record: 7 days tazemetostat pre-treatment, 6 days co-treatment with second agent.
The subject of another assay is NCI-H1793. The settings on record: 7 days tazemetostat pre-treatment, 6 days co-treatment with second agent.
The next assay has as its system NCI-H1993. As to conditions: 7 days tazemetostat pre-treatment, 6 days co-treatment with second agent.
In another assay the test system is NCI-H2030. As to conditions: 7 days tazemetostat pre-treatment, 6 days co-treatment with second agent.
The test system of another assay is NCI-H2110. The settings on record: 7 days tazemetostat pre-treatment, 6 days co-treatment with second agent.
In another assay the test system is NCI-H2122. As to conditions: 7 days tazemetostat pre-treatment, 6 days co-treatment with second agent.
In the next assay the test system is NCI-H23. The settings on record: 7 days tazemetostat pre-treatment, 6 days co-treatment with second agent.
The subject of a further assay is NCI-H460. As to conditions: 7 days tazemetostat pre-treatment, 6 days co-treatment with second agent.
Another assay has as its system NCI-H522. The settings on record: 7 days tazemetostat pre-treatment, 6 days co-treatment with second agent.
The next assay concerns NCI-H661. The settings on record: 7 days tazemetostat pre-treatment, 6 days co-treatment with second agent.
Another assay concerns NCI-H838. The settings on record: 7 days tazemetostat pre-treatment, 6 days co-treatment with second agent.
In a further assay the test system is Calu-3. The settings on record: 7 days tazemetostat pre-treatment, 6 days co-treatment with second agent.
Another assay concerns Calu-6. As to conditions: 7 days tazemetostat pre-treatment, 6 days co-treatment with second agent.
Another assay has as its system HCC827. The settings on record: 7 days tazemetostat pre-treatment, 6 days co-treatment with second agent.

Method for A549: (§1) Initial proliferation studies were performed to determine the IC50 of tazemetostat in each cell line. For the screen, tazemetostat was used at concentrations bracketed around the IC50 value. If 50% inhibitory concentration was not reached then tazemetostat was tested starting at 10 μM.
(§2) In order to study the effect of dual combination of tazemetostat and a second agent on cell proliferation, cells in log-linear phase growth rate were pre-treated with various concentrations of tazemetostat or DMSO for 7 days in flasks, plated in 384-well plates in the absence of compounds and co-treated on day 8 with tazemetostat or DMSO and the second agent serially diluted for additional 6 days (as depicted in FIG. 1). On day 15, plates were developed for endpoint analysis using Cell Titer Glo to measure ATP content, which was used as an indicator of cell viability. DMSO concentration was kept constant throughout the assay at 0.15% v/v.
Method for Calu-6: as §1, §2
Method for NCI-H1299: as §1, §2
Method for NCI-H1573: as §1, §2
(§3) NCI-H1573 was cultured in DMEM: F12 Medium containing the following components: 0.02 mg/ml insulin, 0.01 mg/ml transferrin, 25 nM sodium selenite, 50 nM Hydrocortisone, 1 ng/ml Epidermal Growth Factor, 0.01 mM ethanolamine, 0.01 mM phosphorylethanolamine, 100 pM triiodothyronine, 0.5% (w/v) bovine serum albumin, 0.5 mM sodium pyruvate, 4.5 mM L-glutamine and 1% v/v Pen/Strep.
Method for NCI-H1703: as §1, §2
Method for NCI-H1793: as §1, §2, §3
Method for NCI-H1993: as §1, §2
Method for NCI-H2030: as §1, §2
Method for NCI-H2110: as §1, §2
Method for NCI-H2122: as §1, §2
(§4) All cell lines were obtained from American Type Culture Collection (ATCC; Rockville, Md.). […] A427, Calu-3, Calu-6 cell lines were cultured in EMEM+10% Fetal bovine serum (FBS)+1% v/v Penicillin/Streptomycin (P/S).
Method for NCI-H522: as §1, §2
Method for NCI-H661: as §1, §2, §4
Method for NCI-H838: as §1, §2, §3

For `Nc1ccn([C@@H]2O[C@H](CO)[C@@H](O)C2(F)F)c(=O)n1` [Gemcitabine, gemcitabine], the “combinatorial effect with tazemetostat (Loewe volume class)” value (“combinatorial effect with tazemetostat” for short) was “Syn. (Loewe volumes greater than 1 denoted “synergy”)” in the assay with A427; “Add. (A value between −1 and 1 denoted “additivity”)” with A549; “Add. (A value between −1 and 1 denoted “additivity”)” in the assay with NCI-H1299; “Add. (A value between −1 and 1 denoted “additivity”)” with NCI-H1573; “Add. (A value between −1 and 1 denoted “additivity”)” in the assay with NCI-H1703; “Add. (A value between −1 and 1 denoted “additivity”)” in the assay on NCI-H1793. Further, the “combinatorial effect with tazemetostat” value with NCI-H1993 was “Add. (A value between −1 and 1 denoted “additivity”)”; in the assay with NCI-H2030, “Add. (A value between −1 and 1 denoted “additivity”)”; in the assay on NCI-H2110, “Anta. (volumes <−1 denoted “antagonism”)”; in the assay on NCI-H2122, “Add. (A value between −1 and 1 denoted “additivity”)”; with NCI-H23, “Add. (A value between −1 and 1 denoted “additivity”)”; in the assay with NCI-H460, “Add. (A value between −1 and 1 denoted “additivity”)”. Further, the “combinatorial effect with tazemetostat” value was “Anta. (volumes <−1 denoted “antagonism”)” in the assay with NCI-H522; “Syn. (Loewe volumes greater than 1 denoted “synergy”)” in the assay on NCI-H661; “Add. (A value between −1 and 1 denoted “additivity”)” in the assay on NCI-H838; “Add. (A value between −1 and 1 denoted “additivity”)” in the assay on Calu-3; “Add. (A value between −1 and 1 denoted “additivity”)” in the assay on Calu-6; “Add. (A value between −1 and 1 denoted “additivity”)” in the assay with HCC827.

In the case of `Cc1cc(Nc2ncc(Cl)c(Nc3ccccc3S(=O)(=O)C(C)C)n2)c(OC(C)C)cc1C1CCNCC1` [Ceritinib, ceritinib], the “combinatorial effect with tazemetostat” value in the assay with A427 was “Syn. (Loewe volumes greater than 1 denoted “synergy”)”; with A549 it was “Add. (A value between −1 and 1 denoted “additivity”)”; with NCI-H1299, “Add. (A value between −1 and 1 denoted “additivity”)”; with NCI-H1573, “Syn. (Loewe volumes greater than 1 denoted “synergy”)”; with NCI-H1703 it was “Add. (A value between −1 and 1 denoted “additivity”)”; with NCI-H1793, “Add. (A value between −1 and 1 denoted “additivity”)”. The “combinatorial effect with tazemetostat” value was “Syn. (Loewe volumes greater than 1 denoted “synergy”)” in the assay with NCI-H1993; “Add. (A value between −1 and 1 denoted “additivity”)” with NCI-H2030; “Add. (A value between −1 and 1 denoted “additivity”)” in the assay with NCI-H2110; “Anta. (volumes <−1 denoted “antagonism”)” with NCI-H2122; “Add. (A value between −1 and 1 denoted “additivity”)” with NCI-H23; “Add. (A value between −1 and 1 denoted “additivity”)” in the assay on NCI-H460. Further, the “combinatorial effect with tazemetostat” value in the assay on NCI-H522 was “Add. (A value between −1 and 1 denoted “additivity”)”; in the assay on NCI-H661 it was “Syn. (Loewe volumes greater than 1 denoted “synergy”)”; in the assay on NCI-H838 it was “Syn. (Loewe volumes greater than 1 denoted “synergy”)”; with Calu-3 it was “Add. (A value between −1 and 1 denoted “additivity”)”; in the assay with Calu-6, “Add. (A value between −1 and 1 denoted “additivity”)”; with HCC827, “Add. (A value between −1 and 1 denoted “additivity”)”. The “synergy with an EZH2 inhibitor (tazemetostat)” value with A427 (A427 cells, dose matrix, Loewe excess matrix, isobologram (FIG. 2-5)) is “synergy”.

Turning to `N.N.[Cl][Pt][Cl]` [Cisplatin, cisplatin], the “combinatorial effect with tazemetostat” value was “Syn. (Loewe volumes greater than 1 denoted “synergy”)” with A427; “Syn. (Loewe volumes greater than 1 denoted “synergy”)” in the assay with A549; “No eff” with NCI-H1299; “Add. (A value between −1 and 1 denoted “additivity”)” in the assay on NCI-H1573; “No eff” in the assay with NCI-H1703; “No eff” with NCI-H1793. The “combinatorial effect with tazemetostat” value in the assay on NCI-H1993 is “Syn. (Loewe volumes greater than 1 denoted “synergy”)”; in the assay with NCI-H2030, “Syn. (Loewe volumes greater than 1 denoted “synergy”)”; in the assay on NCI-H2110, “Add. (A value between −1 and 1 denoted “additivity”)”; in the assay with NCI-H2122 it was “Anta. (volumes <−1 denoted “antagonism”)”; in the assay on NCI-H23 it was “Add. (A value between −1 and 1 denoted “additivity”)”; in the assay on NCI-H460, “Add. (A value between −1 and 1 denoted “additivity”)”. The “combinatorial effect with tazemetostat” value in the assay with NCI-H522 is “Anta. (volumes <−1 denoted “antagonism”)”; in the assay with NCI-H661 it was “Syn. (Loewe volumes greater than 1 denoted “synergy”)”; with NCI-H838, “Add. (A value between −1 and 1 denoted “additivity”)”; with Calu-3, “Syn. (Loewe volumes greater than 1 denoted “synergy”)”; with Calu-6 it was “Add. (A value between −1 and 1 denoted “additivity”)”; in the assay with HCC827 it was “Add. (A value between −1 and 1 denoted “additivity”)”.

As to `CC(=O)c1c(C)c2cnc(Nc3ccc(N4CCNCC4)cn3)nc2n(C2CCCC2)c1=O` [Palbociclib, palbociclib], the “combinatorial effect with tazemetostat” value in the assay with A427 was “Syn. (Loewe volumes greater than 1 denoted “synergy”)”; with A549, “Add. (A value between −1 and 1 denoted “additivity”)”; with NCI-H1299, “Anta. (volumes <−1 denoted “antagonism”)”; in the assay with NCI-H1573, “Syn. (Loewe volumes greater than 1 denoted “synergy”)”; in the assay with NCI-H1703, “Anta. (volumes <−1 denoted “antagonism”)”; with NCI-H1793, “Syn. (Loewe volumes greater than 1 denoted “synergy”)”. Moreover, the “combinatorial effect with tazemetostat” value in the assay on NCI-H1993 is “Syn. (Loewe volumes greater than 1 denoted “synergy”)”; in the assay with NCI-H2030, “Add. (A value between −1 and 1 denoted “additivity”)”; in the assay with NCI-H2110 it was “Add. (A value between −1 and 1 denoted “additivity”)”; in the assay on NCI-H2122, “Anta. (volumes <−1 denoted “antagonism”)”; with NCI-H23, “Syn. (Loewe volumes greater than 1 denoted “synergy”)”; in the assay on NCI-H460, “Add. (A value between −1 and 1 denoted “additivity”)”. Moreover, the “combinatorial effect with tazemetostat” value with NCI-H522 was “No eff”; with NCI-H661, “Syn. (Loewe volumes greater than 1 denoted “synergy”)”; in the assay on NCI-H838 it was “Add. (A value between −1 and 1 denoted “additivity”)”; in the assay on Calu-3, “Add. (A value between −1 and 1 denoted “additivity”)”; in the assay on Calu-6, “Add. (A value between −1 and 1 denoted “additivity”)”; in the assay on HCC827, “Add. (A value between −1 and 1 denoted “additivity”)”.

Source of the values: patent publication US11452727B2, “Combination therapy for treating cancer” (Epizyme, Inc., priority 2017, dated 2022).
